Results as given in patent US6818653B1, “6,7-Disubstituted -5,8-quinolinedione derivatives as an antifungal agent” (Il Jin Copper Foil Corp., priority 2002, dated 2004).
In brackets after ≈: the same amount, converted by molar mass. Read-outs that look alike come from different tables or passages of the source.

Columns and labels:
[1] = tested on: Candida tropicalis ATCC8775; assay: MIC by solid medium dilution method; format: cell-based; details: Sabouraud's agar, 3 days at 30° C.; for MIC: Candida tropicalis, ATCC8775, 72 h, read-out: MIC C. tropicallis
Experimental: (§1) The minimum inhibitory concentration (MIC), which indicates the lowest concentration of the active ingredient in the growth medium, was determined by solid medium dilution method. Pathogens strains used are Candida albicans ATCC10231, Candida glabrata ATCC2001, Candida tropicalis ATCC8775, Candida parasilosis ATCC22019, Cryptococuss neoformans KCTC7223.
(§2) 4 mg of a test compound was dissolved in 2 ml of dimethylfulfoxide(DMSO) to produce solutions having a concentration of 2 mg/ml for use and serial two-fold dilution was prepared. The test medium was Sabouraud's agar. 50 μl aliquot of serial two-fold dilution was added to 1 ml of agar medium in 10×1.2 cm petri dishes to be 100, 50, 25, 12.5 6.3, 1.6, and 0.8 μg/ml of test compound concentration and the slant was prepared by tilting the petri dishes. The MIC value without containing a test compound was determined in order to test an effect of a solvent to an antifungal activity. Hyphae with a diameter of 2 mm were inoculated with 2×10^5 CFU. After the medium was cultured for 3 days at 30° C., the MIC values were determined. Control drugs were fluconazole and ketoconazole.

[2] = tested on: Candida glabrata ATCC2001; assay: MIC by solid medium dilution method; format: cell-based; details: Sabouraud's agar, 3 days at 30° C.; for MIC: Nakaseomyces glabratus, ATCC2001, 72 h
Experimental: as §1, §2

[3] = tested on: Candida parasilosis ATCC22019; assay: MIC by solid medium dilution method; format: cell-based; details: Sabouraud's agar, 3 days at 30° C.; for MIC: 72 h, read-out: MIC C. parapsilosis
Experimental: as §1, §2

[4] = tested on: Candida albicans ATCC10231; assay: MIC by solid medium dilution method; format: cell-based; details: Sabouraud's agar, 3 days at 30° C.; for MIC: Candida albicans, ATCC10231, 72 h
Experimental: as §1, §2

[5] = tested on: Cryptococuss neoformans KCTC7223; assay: MIC by solid medium dilution method; format: cell-based; details: Sabouraud's agar, 3 days at 30° C.; for MIC: Cryptococcus neoformans, KCTC7223, 72 h
Experimental: as §1, §2

C. albicans = assay: ED50 in rats infected with C. albicans via tail vein; format: in vivo, rat; details: for ED50: Candida albicans, read-out: ED50 ± SD (n = 5)
Experimental: C. albicans (1×10^7) isolated was inoculated to Sabouraud's agar, suspended in a physiological saline solution, and injected into tail vein of a rat. Strains to kill a rat within 48 hours were selected. C. albicans (2×10^6 which is concentration to kill a rat within 48 hours) suspended in a physiological saline solution was injected and infected into tail veins of 125 rats. Each concentration (10, 2, 0.5, 0.1, 0.025 mg/kg) of the compounds of table 3 was administered to each 10 rats. After infecting with Candida strain, each compound was administered to each 10 rats. Fluconazol as a control drug was also administered with 10, 2, 0.5 and 0.1 mg/kg of concentrations. A physiological saline solution containing 0.2% tween 20 was administered as a control group.

[6] = rat infected with C. albicans 2×10^6 via tail vein

Molecule	MIC [1] [µg/mL]	MIC [2] [µg/mL]	MIC [3] [µg/mL]	MIC [4] [µg/mL]	MIC [5] [µg/mL]	MIC C. tropicallis [1] [µg/mL]	MIC C. glabrata [2] [µg/mL]	MIC C. parapsilosis [3] [µg/mL]	MIC C. albicans [4] [µg/mL]	MIC C. neoformans [5] [µg/mL]	ED50 ± SD (n = 5) (C. albicans; [6]) [mg/kg]	ED50 (C. albicans) [mg/kg]	ED50 (C. albicans; [6]) [mg/kg]
CCCCCCCSC1=C(Cl)C(=O)c2ncccc2C1=O [compound 18, 6-n-heptylmercapto-7-chloro-5,8-quinolindion]	12.5 (≈ 38.6 µM)	50 (≈ 154 µM)	6.3 (≈ 19.5 µM)	6.3 (≈ 19.5 µM)	12.5 (≈ 38.6 µM)								
CSC1=C(Nc2ccc(F)c(F)c2F)C(=O)c2cccnc2C1=O [compound 5, 6-[(N-2,3,4-trifulorophenyl)amino]-7-methylmercapto-5,8-quinolindion]						3.2 (≈ 9.13 µM)	3.2 (≈ 9.13 µM)	25.0 (≈ 71.4 µM)	1.6 (≈ 4.57 µM)	6.3 (≈ 18 µM)			
CC(=O)c1ccc(NC2=C(SC#N)C(=O)c3ncccc3C2=O)cc1 [compound 11, 6-[(N-4-acetophenyl)amino]-7-thiocyano-5,8-quinolindion]						3.2 (≈ 9.16 µM)	25 (≈ 71.6 µM)	3.2 (≈ 9.16 µM)	6.3 (≈ 18 µM)	<0.8			
O=C1C(Nc2cc(Cl)cc(Cl)c2)=C(Cl)C(=O)c2ncccc21 [Compound No. 2, 6-[(N-3,5-dichlorophenyl)amino]-7-chloro-5,8-quinolindion]						25.0 (≈ 70.7 µM)	12.5 (≈ 35.4 µM)	6.3 (≈ 17.8 µM)	12.5 (≈ 35.4 µM)	12.5 (≈ 35.4 µM)	0.07		
CSC1=C(Nc2ccc(Cl)cc2)C(=O)c2cccnc2C1=O [compound 6, 6-[(N-4-chlorophenyl)amino]-7-methylmercapto-5,8-quinolindion]	< 0.8	6.3 (≈ 19 µM)	25 (≈ 75.6 µM)	12.5 (≈ 37.8 µM)	12.5 (≈ 37.8 µM)								
N#CSC1=C(Nc2ccc(Br)cc2)C(=O)c2cccnc2C1=O [compound 9, 6-[(N-4-bromophenyl)amino]-7-thiocyano-5,8-quinolindion]	< 0.8	6.3 (≈ 16.3 µM)	< 0.8	< 0.8	3.2 (≈ 8.29 µM)								
N#CSC1=C(Nc2ccc(I)cc2)C(=O)c2cccnc2C1=O [compound 8, 6-[(N-4-iodophenyl)amino]-7-thiocyano-5,8-quinolindion]	12.5 (≈ 28.9 µM)	12.5 (≈ 28.9 µM)	100 (≈ 231 µM)	12.5 (≈ 28.9 µM)	12.5 (≈ 28.9 µM)								
CC(=O)c1ccc(NC2=C(Cl)C(=O)c3ncccc3C2=O)cc1 [Compound No. 4, 6-[(N-4-acetophenyl)amino]-7-chloro-5,8-quinolindion]						3.2 (≈ 9.79 µM)	3.2 (≈ 9.79 µM)	6.3 (≈ 19.3 µM)	1.6 (≈ 4.9 µM)	12.5 (≈ 38.3 µM)			
CCSC1=C(Cl)C(=O)c2ncccc2C1=O [compound 13, 6-n-ethylmercapto-7-chloro-5,8-quinolindion]						100 (≈ 394 µM)	50 (≈ 197 µM)	3.2 (≈ 12.6 µM)	12.5 (≈ 49.3 µM)	6.3 (≈ 24.8 µM)			
N#CSC1=C(Nc2ccc(Cl)cc2)C(=O)c2cccnc2C1=O [compound 10, 6-[(N-4-chlorophenyl)amino]-7-thiocyano-5,8-quinolindion]	12.5 (≈ 36.6 µM)	12.5 (≈ 36.6 µM)	100 (≈ 293 µM)	12.5 (≈ 36.6 µM)	6.3 (≈ 18.4 µM)								
O=C1C(Nc2ccc(Br)cc2)=C(Br)C(=O)c2ncccc21 [Compound No. 3, 6-[(N-4-bromophenyl)amino]-7-bromo-5,8-quinolindion]	12.5 (≈ 30.6 µM)	6.3 (≈ 15.4 µM)	25 (≈ 61.3 µM)	6.3 (≈ 15.4 µM)	6.3 (≈ 15.4 µM)							0.06	
CCCCCSC1=C(Cl)C(=O)c2ncccc2C1=O [compound 16, 6-n-pentylmercapto-7-chloro-5,8-quinolindion]	50 (≈ 169 µM)	12.5 (≈ 42.3 µM)	6.3 (≈ 21.3 µM)	3.2 (≈ 10.8 µM)	25 (≈ 84.5 µM)								
O=C1C(Nc2ccc(Cl)cc2)=C(Br)C(=O)c2ncccc21 [Compound No. 1, 6-[(N-4-chlorophenyl)amino]-7-bromo-5,8-quinolindion]	12.5 (≈ 34.4 µM)	12.5 (≈ 34.4 µM)	25 (≈ 68.8 µM)	6.3 (≈ 17.3 µM)	12.5 (≈ 34.4 µM)							0.06	
CCCCSC1=C(Cl)C(=O)c2ncccc2C1=O [compound 15, 6-n-butylmercapto-7-chloro-5,8-quinolindion]	100 (≈ 355 µM)	12.5 (≈ 44.4 µM)	25 (≈ 88.7 µM)	25 (≈ 88.7 µM)	12.5 (≈ 44.4 µM)								
CSC1=C(Nc2ccc(I)cc2)C(=O)c2cccnc2C1=O [compound 7, 6-[(N-4-iodophenyl)amino]-7-methylmercapto-5,8-quinolindion]	3.2 (≈ 7.58 µM)	3.2 (≈ 7.58 µM)	25 (≈ 59.2 µM)	6.3 (≈ 14.9 µM)	3.2 (≈ 7.58 µM)								
N#CSC1=C(Nc2cc(F)cc(F)c2)C(=O)c2cccnc2C1=O [compound 12, 6-[(N-3,5-difulorophenyl)amino]-7-thiocyano-5,8-quinolindion]						3.2 (≈ 9.32 µM)	12.5 (≈ 36.4 µM)	1.6 (≈ 4.66 µM)	12.5 (≈ 36.4 µM)	<0.8			
CCCCCCCCCSC1=C(Cl)C(=O)c2ncccc2C1=O [compound 20, 6-n-nonylmercapto-7-chloro-5,8-quinolindion]	6.3 (≈ 17.9 µM)	50 (≈ 142 µM)	25 (≈ 71 µM)	50 (≈ 142 µM)	25 (≈ 71 µM)								
CC(=O)N1CCN(c2ccc(OCC3COC(Cn4ccnc4)(c4ccc(Cl)cc4Cl)O3)cc2)CC1 (stereo not drawn) [Ketoconazole, ketoconazole, reference compound]	12.5 (≈ 23.5 µM)	12.5 (≈ 23.5 µM)	12.5 (≈ 23.5 µM)	12.5 (≈ 23.5 µM)	12.5 (≈ 23.5 µM)								
CCCCCCCCSC1=C(Cl)C(=O)c2ncccc2C1=O [compound 19, 6-n-octylmercapto-7-chloro-5,8-quinolindion]	12.5 (≈ 37 µM)	25 (≈ 74 µM)	3.2 (≈ 9.47 µM)	12.5 (≈ 37 µM)	12.5 (≈ 37 µM)								
6-n-hecxylmercapto-7-chloro-5,8-quinolindion [compound 17]						50	50	25	25	12.5			
CCCSC1=C(Cl)C(=O)c2ncccc2C1=O [compound 14, 6-n-propylmercapto-7-chloro-5,8-quinolindion]	50 (≈ 187 µM)	50 (≈ 187 µM)	12.5 (≈ 46.7 µM)	12.5 (≈ 46.7 µM)	3.2 (≈ 12 µM)								
OC(Cn1cncn1)(Cn1cncn1)c1ccc(F)cc1F [Fluconazole, fluconazole, reference compound]	100 (≈ 327 µM)	25 (≈ 81.6 µM)	12.5 (≈ 40.8 µM)	25 (≈ 81.6 µM)	25 (≈ 81.6 µM)								6
